For this test, the system named is BDF1 mice, B16 melanoma ip, median survival T/C. The test can be described thus: NCI In Vivo Anticancer Drug Screen. Data for tumor model B16 Melanoma (intraperitoneal) in B6D2F1 (BDF1) mice. The note with it: endpoint: median survival time, higher = longer survival. In short, it runs like this:
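The ratio T/C compares compound-treated mice with vehicle-treated controls, using survival or tumor size as the endpoint in a transplantable tumor model.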

Setting [1] is: dose: 100.0 mg/kg/injection, schedule: Q01DX009 (ip), vehicle: Klucel (hydroxypropylcellulose) (HPC).
[2] abbreviates: dose: 200.0 mg/kg/injection, schedule: Q01DX009 (ip), vehicle: Klucel (hydroxypropylcellulose) (HPC).
[3] abbreviates: dose: 12.5 mg/kg/injection, schedule: Q01DX009 (ip), vehicle: Klucel (hydroxypropylcellulose) (HPC).
The mark [4] stands for this setting: dose: 25.0 mg/kg/injection, schedule: Q01DX009 (ip), vehicle: Klucel (hydroxypropylcellulose) (HPC).
Setting [5] is: dose: 50.0 mg/kg/injection, schedule: Q01DX009 (ip), vehicle: Klucel (hydroxypropylcellulose) (HPC).
Where [6] appears, read: dose: 100.0 mg/kg/injection, schedule: Q04DX003 (ip), vehicle: Klucel (hydroxypropylcellulose) (HPC).
Setting [7] is: dose: 200.0 mg/kg/injection, schedule: Q04DX003 (ip), vehicle: Klucel (hydroxypropylcellulose) (HPC).

The structures appear in SMILES notation. Where “and” joins values, the source holds several entries; their conditions need not be identical. Equal entries are not always repeated. Inconclusive results and toxic doses are left out. Peptide text beside a SMILES is read from it. * marks the point of attachment. Trt = c1ccc(C(c2ccccc2)(c2ccccc2)*)cc1; Cbz = O=C(OCc1ccccc1)*; Bn = c1ccc(C*)cc1; βAla = NCCC(=O)O

On to `CNC(=O)Nc1c(C)cccc1C`, for which the T/C reads like this: under setting [1], 96 % of control; under setting [2], 100 % of control.
For `Cc1ccc(S(=O)(=O)N(C)C)cc1N`, the T/C (dose: 100.0 mg/kg/injection, schedule: Q01DX009 (ip), vehicle: saline with Tween-80) was 97 % of control; the T/C (dose: 100.0 mg/kg/injection, schedule: Q04DX003 (ip), vehicle: saline with Tween-80) was 100 % of control; the T/C (dose: 200.0 mg/kg/injection, schedule: Q01DX009 (ip), vehicle: saline with Tween-80) is 118 % of control; the T/C (dose: 200.0 mg/kg/injection, schedule: Q04DX003 (ip), vehicle: saline with Tween-80) is 102 % of control; the T/C (dose: 400.0 mg/kg/injection, schedule: Q01DX009 (ip), vehicle: saline with Tween-80) was 102 % of control; the T/C (dose: 400.0 mg/kg/injection, schedule: Q04DX003 (ip), vehicle: saline with Tween-80) is 100 % of control.
With `COC(=O)C(CSC(c1ccccc1)(c1ccccc1)c1ccccc1)NC(=O)C(CSCc1ccccc1)NC(=O)CCNC(=O)OCc1ccccc1` (stereo not drawn) ({Cbz-βAla}-Cys(Bn)-Cys(Trt)-OMe; configuration not given here), the T/C reads like this: under setting [3], 86 % of control; under setting [4], 87 % of control and 92 % of control; under setting [5], 89 % of control and 120 % of control; (dose: 400.0 mg/kg/injection, schedule: Q01DX009 (ip), vehicle: Klucel (hydroxypropylcellulose) (HPC)) 167 % of control.
`O=P(O)(O)OCC(O)CCl` (stereo not drawn): the T/C is, setting by setting: (dose: 50.0 mg/kg/injection, schedule: Q01DX009 (ip), vehicle: saline) 110 % of control; (dose: 100.0 mg/kg/injection, schedule: Q01DX009 (ip), vehicle: saline) 103 % of control; (dose: 200.0 mg/kg/injection, schedule: Q01DX009 (ip), vehicle: saline) 103 % of control.
`CCCN(CCC)CC(C)=O`: the T/C is 107 % of control under setting [6] and 97 % of control under setting [7].
Consider `COc1ccccc1N1CCN(CCCC(=O)c2ccc(F)cc2)CC1`, for which the T/C is, setting by setting: (dose: 0.09 mg/kg/injection, schedule: Q04DX003 (ip), vehicle: Klucel (hydroxypropylcellulose) (HPC)) 93 % of control; (dose: 0.19 mg/kg/injection, schedule: Q04DX003 (ip), vehicle: Klucel (hydroxypropylcellulose) (HPC)) 91 % of control; (dose: 0.39 mg/kg/injection, schedule: Q04DX003 (ip), vehicle: Klucel (hydroxypropylcellulose) (HPC)) 96 % of control; (dose: 0.78 mg/kg/injection, schedule: Q04DX003 (ip), vehicle: Klucel (hydroxypropylcellulose) (HPC)) 87 % of control; (dose: 1.56 mg/kg/injection, schedule: Q04DX003 (ip), vehicle: Klucel (hydroxypropylcellulose) (HPC)) 90 % of control; (dose: 6.25 mg/kg/injection, schedule: Q01DX009 (ip), vehicle: Klucel (hydroxypropylcellulose) (HPC)) 92 % of control. The T/C under setting [3] is 92 % of control, the T/C under setting [4] was 100 % of control and the T/C under setting [5] is 105 % of control.
For `CC1CCC2(OC1)OC1CC3C4CCC5CC(O)CCC5(C)C4CCC3(C)C1C2C` (stereo not drawn), the T/C reads like this: (dose: 10.0 mg/kg/injection, schedule: Q01DX009 (ip), vehicle: Klucel (hydroxypropylcellulose) (HPC)) 99 % of control; (dose: 20.0 mg/kg/injection, schedule: Q01DX009 (ip), vehicle: Klucel (hydroxypropylcellulose) (HPC)) 97 % of control; (dose: 40.0 mg/kg/injection, schedule: Q01DX009 (ip), vehicle: Klucel (hydroxypropylcellulose) (HPC)) 95 % of control.
For the compound `Ic1ncnc2c1ncn2C1CCCO1` (stereo not drawn), the T/C reads like this: under setting [1], 118 % of control; under setting [2], 104 % of control.
`Cc1cc(/C=C\c2ccc3ccccc3[n+]2C)c(O)c2ncccc12`: the T/C (dose: 6.25 mg/kg/injection, schedule: Q01DX009 (ip), vehicle: saline with Tween-80) is 106 % of control; the T/C (dose: 12.5 mg/kg/injection, schedule: Q01DX009 (ip), vehicle: saline with Tween-80) is 101 % of control; the T/C (dose: 25.0 mg/kg/injection, schedule: Q01DX009 (ip), vehicle: saline with Tween-80) is 101 % of control.
For `COc1ccccc1NC(=O)Nc1ccc(F)cc1`, the T/C is 95 % of control under setting [6]; 95 % of control under setting [7]; 89 % of control (dose: 400.0 mg/kg/injection, schedule: Q04DX003 (ip), vehicle: Klucel (hydroxypropylcellulose) (HPC)).
`CCCC(=O)O.CCCC(=O)O.CCCC(=O)O.CCCC(=O)O.[Rh].[Rh]`: the T/C reads like this: (dose: 46.7 micrograms/kg/injection, schedule: Q08HX018 (ip), vehicle: saline + alcohol) 98 % of control; (dose: 77.8 micrograms/kg/injection, schedule: Q08HX018 (ip), vehicle: saline + alcohol) 97 % of control; (dose: 93.3 micrograms/kg/injection, schedule: Q01DX009 (ip), vehicle: saline + alcohol) 98 % of control; (dose: 156.0 micrograms/kg/injection, schedule: Q01DX009 (ip), vehicle: saline + alcohol) 98 % of control; (dose: 216.0 micrograms/kg/injection, schedule: Q08HX018 (ip), vehicle: saline + alcohol) 88 % of control; (dose: 259.0 micrograms/kg/injection, schedule: Q01DX009 (ip), vehicle: saline + alcohol) 102 % of control.

The record behind these values is PubChem BioAssay AID192 (DTP/NCI, 2004).
